Data: USRE47689E1, “Compounds for treating spinal muscular atrophy” (PTC Therapeutics, Inc., priority 2011, dated 2019)

Tests used:
Smn protein = Smn protein assay in cultured cells (SMN HTRF); type: cell-based, human; settings: 48 hours; for maximum fold (Fold) increase of Smn protein: SMA patient fibroblast cells, 7-point concentration data, fold increase relative to vehicle control (SMN HTRF); for EC1.5x (concentration giving 1.5-fold Smn protein increase): SMA Type 1 patient fibroblast cells (GM03813), 7-point concentration curve, SMN HTRF, concentration producing 1.5 times Smn protein vs DMSO vehicle control, read-out: EC1.5x for Smn protein expression
Summary of the method: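 Lysates in RIPA with protease inhibitors are incubated overnight at room temperature with HTRF anti-SMN antibodies. EC1.5x is derived from fold increase in ΔF over vehicle.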

[1] = test system: SMN2 minigene (full length SMN2 minigene mRNA containing SMN2 exon 7); assay: SMN2 minigene mRNA splicing RT-qPCR assay in cultured cells; type: cell-based, human; settings: Homo sapiens, HEK293-H; HEK293H cells stably transfected with SMN2-A minigene; 24 hours; 7-point concentration curve; 1.5-fold relative to vehicle-treated cells; read-out: EC1.5x for production of full length SMN2 mRNA
Summary of the method: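 Read-out: full-length (exon 7-included) SMN2 minigene mRNA by multiplex RT-qPCR with GAPDH, efficiency-corrected (1+E)^−Ct, GAPDH-normalized and divided by vehicle. Stably transfected HEK293H cells, 24 h compound exposure, duplicates per concentration. Value is EC1.5x, reported as star ranges.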

Compound: Cc1cn2cc(-c3cc4ccc(N5CCN(C(C)(C)C)CC5)cc4oc3=O)nc2c(C)n1 [Compound 812, 7-(4-tert-butylpiperazin-1-yl)-3-(6,8-dimethylimidazo[1,2-a]pyrazin-2-yl)-2H-chromen-2-one]
- maximum fold (Fold) increase of Smn protein (Smn protein): *** (fold increase between >1.35 and ≤1.5)
- EC (1.5-fold) [1]: < 0.1 µM
- melting point: 270 to 272 °C

Compound: Cc1nc2ccc(-c3cc4ccc(N5CCNCC5)cc4oc3=O)cc2o1 [Compound 695, 3-(2-methyl-1,3-benzoxazol-6-yl)-7-(piperazin-1-yl)-2H-chromen-2-one]
- maximum fold (Fold) increase of Smn protein (Smn protein): *** (fold increase between >1.35 and ≤1.5)
- EC (1.5-fold) [1]: < 0.1 µM
- melting point: 200 to 205 °C

Compound: Cc1csc(-c2cc3ccc(N4CCNC(C)(C)C4)cc3oc2=O)n1 [Compound 301, 7-(3,3-dimethylpiperazin-1-yl)-3-(4-methyl-1,3-thiazol-2-yl)-2H-chromen-2-one]
- maximum fold (Fold) increase of Smn protein (Smn protein): * (maximum fold increase of ≤1.2)
- EC (1.5-fold) [1]: 1 to 3 µM
- melting point: 204 to 209 °C

Compound: O=c1oc2cc(N3CCN(CCO)CC3)ccc2cc1-c1cn2cc(Cl)ccc2n1 [Compound 104, 3-(6-chloroimidazo[1,2-a]pyridin-2-yl)-7-[4-(2-hydroxyethyl)piperazin-1-yl]-2H-chromen-2-one]
- maximum fold (Fold) increase of Smn protein (Smn protein): *** (fold increase between >1.35 and ≤1.5)
- EC (1.5-fold) [1]: 3 to 30 µM
- melting point: 245 to 250 °C

Compound: Cc1nccn2cc(-c3cc4ccc(N5CCCNCC5)cc4oc3=O)nc12 [Compound 572, 7-(1,4-diazepan-1-yl)-3-(8-methylimidazo[1,2-a]pyrazin-2-yl)-2H-chromen-2-one]
- EC1.5x (concentration giving 1.5-fold Smn protein increase) (Smn protein): 300 to 1000 nM
- maximum fold (Fold) increase of Smn protein (Smn protein): **** (fold increase between >1.5 and ≤1.65)
- EC (1.5-fold) [1]: 0.1 to 0.3 µM
- melting point: 212 to 216 °C

Compound: CCc1cccn2cc(-c3cc4ccc(N5CCN(C)CC5)cc4oc3=O)nc12 [Compound 358, 3-(8-ethylimidazo[1,2-a]pyridin-2-yl)-7-(4-methylpiperazin-1-yl)-2H-chromen-2-one]
- maximum fold (Fold) increase of Smn protein (Smn protein): *** (fold increase between >1.35 and ≤1.5)
- EC (1.5-fold) [1]: 1 to 3 µM
- melting point: 137 to 141 °C

Compound: C[C@@H]1CN(c2ccc3cc(-c4cc5ccccc5o4)c(=O)oc3c2)C[C@H](C)N1 [Compound 604, 3-(1-benzofuran-2-yl)-7-[(3R,5S)-3,5-dimethylpiperazin-1-yl]-2H-chromen-2-one]
- maximum fold (Fold) increase of Smn protein (Smn protein): * (maximum fold increase of ≤1.2)
- EC (1.5-fold) [1]: 0.3 to 1 µM
- melting point: 191 to 193 °C

Compound: CCOc1ncccc1-c1cc2ccc(N3CCNCC3)cc2oc1=O [Compound 256, 3-(2-ethoxypyridin-3-yl)-7-(piperazin-1-yl)-2H-chromen-2-one]
- maximum fold (Fold) increase of Smn protein (Smn protein): * (maximum fold increase of ≤1.2)
- EC (1.5-fold) [1]: 3 to 30 µM
- melting point: 186 to 188 °C

Compound: CCc1ccn2cc(-c3cc4ccc(N5C[C@@H](C)N[C@@H](C)C5)cc4oc3=O)nc2c1 [Compound 289, 7-[(3R,5S)-3,5-dimethylpiperazin-1-yl]-3-(7-ethylimidazo[1,2-a]pyridin-2-yl)-2H-chromen-2-one]
- maximum fold (Fold) increase of Smn protein (Smn protein): * (maximum fold increase of ≤1.2)
- EC (1.5-fold) [1]: 0.3 to 1 µM
- melting point: 183 to 188 °C

Compound: Cc1cn2cc(-c3cc4ccc(OC5CCN(C(CO)CO)CC5)cc4oc3=O)nc2c(C)n1 [Compound 915, 7-{[1-(1,3-dihydroxypropan-2-yl)piperidin-4-yl]oxy}-3-(6,8-dimethylimidazo[1,2-a]pyrazin-2-yl)-2H-chromen-2-one]
- EC1.5x (concentration giving 1.5-fold Smn protein increase) (Smn protein): 300 to 1000 nM
- maximum fold (Fold) increase of Smn protein (Smn protein): **** (fold increase between >1.5 and ≤1.65)
- EC (1.5-fold) [1]: < 0.1 µM
- melting point: 206 to 210 °C

Compound: C[C@@H]1CN(c2ccc3cc(-c4cn5cccc(F)c5n4)c(=O)oc3c2)C[C@H](C)N1 [Compound 338, 7-[(3R,5S)-3,5-dimethylpiperazin-1-yl]-3-(8-fluoroimidazo[1,2-a]pyridin-2-yl)-2H-chromen-2-one]
- EC1.5x (concentration giving 1.5-fold Smn protein increase) (Smn protein): 3000 to 10000 nM
- maximum fold (Fold) increase of Smn protein (Smn protein): ** (fold increase between >1.2 and ≤1.35)
- EC (1.5-fold) [1]: 0.1 to 0.3 µM
- melting point: 176 to 180 °C

Compound: Cc1cn2cc(-c3cc4ccc(N5CC[C@H](N(C)C)C5)cc4oc3=O)cc2cn1 [Compound 666, 7-[(3S)-3-(dimethylamino)pyrrolidin-1-yl]-3-(3-methylpyrrolo[1,2-a]pyrazin-7-yl)-2H-chromen-2-one]
- EC1.5x (concentration giving 1.5-fold Smn protein increase) (Smn protein): < 300 nM
- maximum fold (Fold) increase of Smn protein (Smn protein): **** (fold increase between >1.5 and ≤1.65)
- EC (1.5-fold) [1]: < 0.1 µM
- melting point: 200 to 204 °C

Compound: CN1CCN(c2ccc3cc(-c4cn5cc(Cl)ccc5n4)c(=O)oc3c2)CC1 [Compound 94, 3-(6-chloroimidazo[1,2-a]pyridin-2-yl)-7-(4-methylpiperazin-1-yl)-2H-chromen-2-one]
- maximum fold (Fold) increase of Smn protein (Smn protein): *** (fold increase between >1.35 and ≤1.5)
- EC (1.5-fold) [1]: 3 to 30 µM
- melting point: 290 to 292 °C

Compound: C[C@@H]1CN(c2ccc3cc(-c4nc(C(F)(F)F)cs4)c(=O)oc3c2)C[C@H](C)N1 [Compound 236, 7-[(3R,5S)-3,5-dimethylpiperazin-1-yl]-3-[4-(trifluoromethyl)-1,3-thiazol-2-yl]-2H-chromen-2-one]
- maximum fold (Fold) increase of Smn protein (Smn protein): * (maximum fold increase of ≤1.2)
- EC (1.5-fold) [1]: 1 to 3 µM
- melting point: 215 to 219 °C

Compound: COc1ccc(-c2cc3ccc(N4CCNCC4)cc3oc2=O)cc1F [Compound 544, 3-(3-fluoro-4-methoxyphenyl)-7-(piperazin-1-yl)-2H-chromen-2-one]
- maximum fold (Fold) increase of Smn protein (Smn protein): ** (fold increase between >1.2 and ≤1.35)
- EC (1.5-fold) [1]: 0.1 to 0.3 µM
- melting point: 241 to 243 °C

Compound: Cc1cc(F)cn2cc(-c3cc4ccc(N5CCN(C)CC5)cc4oc3=O)nc12 [Compound 329, 3-(6-fluoro-8-methylimidazo[1,2-a]pyridin-2-yl)-7-(4-methylpiperazin-1-yl)-2H-chromen-2-one]
- maximum fold (Fold) increase of Smn protein (Smn protein): * (maximum fold increase of ≤1.2)
- EC (1.5-fold) [1]: 0.3 to 1 µM
- melting point: 223 to 233 °C

Compound: Cc1cn2cc(-c3cc4ccc(O[C@@H]5CCN(C(C)CO)C5)cc4oc3=O)nc2c(C)n1 (stereo partly drawn) [Compound 893, 3-(6,8-dimethylimidazo[1,2-a]pyrazin-2-yl)-7-{[(3R)-1-(1-hydroxypropan-2-yl)pyrrolidin-3-yl]oxy}-2H-chromen-2-one]
- EC1.5x (concentration giving 1.5-fold Smn protein increase) (Smn protein): < 300 nM
- maximum fold (Fold) increase of Smn protein (Smn protein): ***** (fold increase >1.65)
- EC (1.5-fold) [1]: < 0.1 µM
- melting point: 196 to 202 °C

Compound: Cc1cn2cc(-c3cc4ccc(N5C[C@@H]6C[C@H]5CN6C)cc4oc3=O)nc2c(C)n1 [Compound 696, 3-(6,8-dimethylimidazo[1,2-a]pyrazin-2-yl)-7-[(1S,4S)-5-methyl-2,5-diazabicyclo[2.2.1]hept-2-yl]-2H-chromen-2-one]
- EC1.5x (concentration giving 1.5-fold Smn protein increase) (Smn protein): < 300 nM
- maximum fold (Fold) increase of Smn protein (Smn protein): ***** (fold increase >1.65)
- EC (1.5-fold) [1]: < 0.1 µM
- melting point: 219 to 226 °C

Compound: CCN(CC)C1CCN(c2ccc3cc(-c4cc5c(C)nc(C)cn5c4)c(=O)oc3c2)C1 (stereo not drawn) [Compound 735, 7-[3-(diethylamino)pyrrolidin-1-yl]-3-(1,3-dimethylpyrrolo[1,2-a]pyrazin-7-yl)-2H-chromen-2-one]
- EC1.5x (concentration giving 1.5-fold Smn protein increase) (Smn protein): 300 to 1000 nM
- maximum fold (Fold) increase of Smn protein (Smn protein): **** (fold increase between >1.5 and ≤1.65)
- EC (1.5-fold) [1]: < 0.1 µM
- melting point: 165 to 168 °C

Compound: Cc1cn2cc(-c3cc4ccc(CCN5CCC[C@@H]5CO)cc4oc3=O)nc2c(C)n1 [Compound 874, 3-(6,8-dimethylimidazo[1,2-a]pyrazin-2-yl)-7-{2-[(2R)-2-(hydroxymethyl)pyrrolidin-1-yl]ethyl}-2H-chromen-2-one]
- EC1.5x (concentration giving 1.5-fold Smn protein increase) (Smn protein): < 300 nM
- maximum fold (Fold) increase of Smn protein (Smn protein): ***** (fold increase >1.65)
- EC (1.5-fold) [1]: < 0.1 µM
- melting point: 166 to 171 °C

Compound: Cc1ccc2nc(-c3cc4ccc(N5CCNCC5)cc4oc3=O)cn2c1 [Compound 51, 3-(6-methylimidazo[1,2-a]pyridin-2-yl)-7-(piperazin-1-yl)-2H-chromen-2-one]
- EC1.5x (concentration giving 1.5-fold Smn protein increase) (Smn protein): < 300 nM
- maximum fold (Fold) increase of Smn protein (Smn protein): ***** (fold increase >1.65)
- EC (1.5-fold) [1]: 0.1 to 0.3 µM
- melting point: 229 to 232 °C

Compound: C[C@H]1CN(c2ccc3cc(-c4ccc(F)c(Cl)c4)c(=O)oc3c2)CCN1 [Compound 485, 3-(3-chloro-4-fluorophenyl)-7-[(3S)-3-methylpiperazin-1-yl]-2H-chromen-2-one]
- maximum fold (Fold) increase of Smn protein (Smn protein): * (maximum fold increase of ≤1.2)
- EC (1.5-fold) [1]: 1 to 3 µM
- melting point: 143 to 145 °C

Compound: Cc1ccn2nc(-c3cc4ccc(N5CCNC(C)(C)C5)cc4oc3=O)cc2c1 [Compound 305, 7-(3,3-dimethylpiperazin-1-yl)-3-(5-methylpyrazolo[1,5-a]pyridin-2-yl)-2H-chromen-2-one]
- maximum fold (Fold) increase of Smn protein (Smn protein): ** (fold increase between >1.2 and ≤1.35)
- EC (1.5-fold) [1]: 0.3 to 1 µM
- melting point: 203 to 205 °C

Compound: C[C@H]1CN(c2ccc3cc(-c4cccc(C(F)(F)F)c4)c(=O)oc3c2)CCN1 [Compound 490, 7-[(3S)-3-methylpiperazin-1-yl]-3-[3-(trifluoromethyl)phenyl]-2H-chromen-2-one]
- maximum fold (Fold) increase of Smn protein (Smn protein): * (maximum fold increase of ≤1.2)
- EC (1.5-fold) [1]: 1 to 3 µM
- melting point: 141 to 143 °C
